Measured values from patent US7205320B2, “Phosphodiesterase 4 inhibitors” (Memory Pharmaceuticals Corp., priority 2001, dated 2007).

Tests used:
rats [1] = test: Passive avoidance in rats, in vivo test for learning and memory (MK-801 amnesia); design: species or system rat; details: MK-801 0.1 mg/kg pretreatment, 24 hours after shock, p<0.001
Method: Passive Avoidance in Rats, an In vivo Test for Learning and Memory
The test was performed as previously described (Zhang, H.-T., Crissman, A. M., Dorairaj, N. R., Chandler, L. J., and O'Donnell, J. M., Neuropsychopharmacology, 2000, 23, 198–204.). The apparatus (Model E10-16SC, Coulbourn Instruments, Allentown, Pa.) consisted of a two-compartment chamber with an illuminated compartment connected to a darkened compartment by a guillotine door. The floor of the darkened compartment consisted of stainless steel rods through which an electric foot-shock could be delivered from a constant current source. All experimental groups were first habituated to the apparatus the day before the start of the experiment. During the training, the rat (Male Spraque-Dawley (Harlan) weighing 250 to 350 g) was placed in the illuminated compartment facing away from the closed guillotine door for 1 minute before the door was raised. The latency for entering the darkened compartment was recorded. After the rat entered the darkened compartment, the door was closed and a 0.5 mA electric shock was administered for 3 seconds. […] The latency for entering the darkened compartment was recorded for up to 180 seconds, at which time the trial was terminated.
(§1) All data were analyzed by analyses of variance (ANOVA); individual comparisons were made using Kewman-Keuls tests. […]

rats [2] = test: Radial arm maze task in rats, in vivo test for learning and memory (MK-801 amnesia); design: species or system rat; details: MK-801 0.1 mg/kg, i.p., p<0.01
Method: Radial Arm Maze Task in Rats, an In vivo Test for Learning and Memory
The test was performed as previously described (Zhang, H.-T., Crissman, A. M., Dorairaj, N. R., Chandler, L. J., and O'Donnell, J. M., Neuropsychopharmacalogy, 2000, 23, 198–204.). Five days after initial housing, rats (male Spraque-Dawley (Harlan) weighing 250 to 350 g) were placed in the eight-arm radial maze (each arm was 60×10×12 cm high; the maze was elevated 70 cm above the floor) for acclimation for two days. Rats were then placed individually in the center of the maze for 5 minutes with food pellets placed close to the food wells, and then, the next day, in the wells at the end of the arms; 2 sessions a day were conducted. Next, four randomly selected arms were then baited with one pellet of food each. […] Four parameters were recorded: […]) working memory errors, i.e., entries into baited arms that had already been visited during the same trial; 2) reference memory errors, i.e., entries into unbaited arms; 3) total arm entries; and 4) the test duration (seconds), i.e., the time spent in the collection of all the pellets in the maze. […]
as §1

C[C@]12N[C@H](Cc3ccccc31)c1ccccc12 [MK-801]
Latency for entering the darkened compartment compared to the vehicle (rats [1]): markedly reduced
Frequencies of working and reference memory errors compared to control (rats [2]): increased
